This note sets out measurements from patent publication US20250345419A1, “TREATING CHEMORESISTANT CANCERS WITH NOTCH3 INHIBITORS” (Mayo Foundation for Medical Education and Research, priority 2022, published 2025).

Series [1] relates to 3D-MPS derived from SUM149-PT cells. The experiment in a line: Real-time growth of RFP-tagged 3D-mammospheres (3D-MPS). The series is classed as cell-based, human. The settings on record: SUM149-PT 3D-MPS, AV-353 100 ng and/or DTX 5 nM, 96 hours. The method, then:
FIGS. 7A and 7B show results from treatment of 3D-mammospheres (3D-MPS) of SM149-PT TNBC cells with AV-353 (½ IC50: 100 ng) and/or DTX (½ IC50: 5 nM). FIG. 7A includes representative images of RFP-tagged 3DMPS before and after treatment with AV-353 (½ IC50: 100 ng) and/or DTX (½ IC50: 5 nM) for 96 hours, using Annexin-V (red) as a marker of early apoptosis. FIG. 7B is a graph plotting real-time growth of RFP-tagged 3D-MPS before and after treatment with AV-353 (½ IC50: 100 ng) and/or DTX (½ IC50: 5 nM) for 96 hours. 3D-MPS growth was quantified using the INCUCYTE® Cell Player System. Three independent experiments were performed in triplicate (±S.D.).
(§1) Mammospheres Formation: Human breast cancer cells were plated in ultra-low attachment 24-well and 96-well culture dishes in 100 μL of MAMMOCULT™ medium (STEMCELL™ Technologies; Vancouver, BC, Canada). Medium was added every 2 days for a maximum of 8 days. Mammospheres were trypsinized and expanded every 8 days to form tertiary mammospheres, and their growth was recorded through a digital camera (Nikon).
Real-Time Cell Proliferation, Cytotoxicity and Apoptosis Assays: 5,000 cells were plated in Costar […] plates, treated with Docetaxel (DTX) and/or AV-353 (as monotherapy or in combination). Cell proliferation was monitored in real-time by GFP or RFP fluorescence intensity, and Red Annexin-V was used as an early marker of apoptosis. […]

In a further series the test system is TNBC-M25 3D-MPS. Description: TNBC-M25 mammosphere growth (area, Image-J). The class given is cell-based, human. The method, then: FIGS. 4A and 4B show NOTCH3 genetic targeting in TNBC-M25 mammospheres. FIG. 4A includes images of TNBCM25 single-cell dilutions grown under non-adherent conditions. After 48 hours of incubation, mammospheres were treated with 5 nM (½ IC50) or 10 nM (IC50) docetaxel (DTX) for 10 days. FIG. 4B is a graph plotting mammosphere area measured using the NIH Image-J software. Three independent experiments were performed in triplicate (±S.D.).
as §1
Mammosphere Formation: Human breast cancer cells were plated in ultra-low attachment 24- and 96-well culture dishes in 100 μL of MAMMOCULT™ medium (STEMCELL™ Technologies), and medium was added every 2 days for a maximum of 8 days. Mammospheres were trypsinized and expanded every 8 days to form tertiary mammospheres, and their growth was recorded through a digital camera (Nikon).

The nature of series [2]: Toxicology studies, PTX with escalating doses of AV-353. The series is classed as in vivo, female NSG mice. The settings on record: PTX 10 mg/Kg, AV-353 100, 200, 400 ug. Here is the method:
FIG. 17 is a series of graphs plotting liver toxicity in mice treated with saline (CON), paclitaxel 10 mg/Kg (PTX), paclitaxel 10 mg/Kg+AV-353 100 ug (PTX+AV100), paclitaxel 10 mg/Kg+AV-353 200 ug (PTX+AV200), or paclitaxel 10 mg/Kg+AV-353 400 ug (PTX+AV400), based on measurements of liver function indicators: alanine aminotransferase (ALT), aspartate aminotransferase (AST), alkaline phosphatase (ALP), and total bilirubin (TBIL), as well as an indicator of kidney function (creatinine; CRE), and an indicator of general nutritional status (albumin; ALB). Blood samples (1 ml) were collected from animals, and liver enzyme analysis was carried out using a VETSCAN® instrument (Zoetis; Parsippany, NJ).
Toxicology studies: Female NSG mice received saline solution (control) or 10 mg/Kg paclitaxel (PTX) as monotherapy or in combination with escalating doses of AV-353 (AV100 ug, AV200 ug, and AV400 ug). PTX and AV-353 were administered intraperitoneally 3 times per week for 4 weeks. […] After drug treatment, animals were euthanized and organs of interest (liver and stomach) were paraffin embedded, sectioned, and hematoxylin and eosin stained. […] Although no liver damage was detected at the morphological or histological level, further studies were conducted to determine the extent to which the drug treatments induced an increase of liver enzymes. […]

Entries after “also recorded” stand apart in the source; their conditions may differ.

A word on the IC50: it is the midpoint of a concentration-inhibition curve. The low end stands for greater potency in that assay, the high end for weaker potency in that assay. For the compound `CC(=O)O[C@@]12CO[C@@H]1C[C@H](O)[C@@]1(C)C(=O)[C@H](O)C3=C(C)[C@@H](OC(=O)[C@H](O)[C@@H](NC(=O)OC(C)(C)C)c4ccccc4)C[C@@](O)([C@@H](OC(=O)c4ccccc4)[C@H]21)C3(C)C` [DTX, docetaxel], in series [1], the “mammosphere (3D-MPS) growth” value is “small effect on growth”. Also, in the series with TNBC-M25 3D-MPS (Homo sapiens, TNBC-M25 mammospheres), the IC50 was determined as 10 nM. Also, the 3D-MPS growth result in the series with TNBC-M25 3D-MPS (TNBC-M25 3D-MPS) is listed as “did not inhibit 3D MPS growth”.

In the case of `CC(=O)O[C@H]1C(=O)[C@@]2(C)[C@H]([C@H](OC(=O)c3ccccc3)[C@]3(O)C[C@H](OC(=O)[C@H](O)[C@@H](NC(=O)c4ccccc4)c4ccccc4)C(C)=C1C3(C)C)[C@]1(OC(C)=O)CO[C@@H]1C[C@@H]2O` [PTX, paclitaxel], in series [2] (3 times per week for 4 weeks), the “liver and stomach histology (H&E)” value was “No significant damage; also recorded: no significant changes in the architecture of liver and stomach tissue”. Besides, the body weight entry in series [2] (intraperitoneally 3 times per week for 4 weeks) is recorded as “did not induce body weight loss”.
